Source: US12310980B2, “Synthesis of a potent aromatase inhibitor 17α-acetoxy-10β,11β-dihydroxy-progesterone for the treatment of ER+ breast cancer” (priority 2023, dated 2025)
Like-named read-outs stand apart in the source and are kept apart here.

Assays:
human aromatase = target: T1, human aromatase (Homo sapiens, UniProt P11511); assay: UPLC-based aromatase inhibition assay; type: biochemical
T1 construct: containing protein (2 mg) from human placental microsomes; from tissue; host or cells: human placenta (microsomes)
T1 sequence (P11511 1-503): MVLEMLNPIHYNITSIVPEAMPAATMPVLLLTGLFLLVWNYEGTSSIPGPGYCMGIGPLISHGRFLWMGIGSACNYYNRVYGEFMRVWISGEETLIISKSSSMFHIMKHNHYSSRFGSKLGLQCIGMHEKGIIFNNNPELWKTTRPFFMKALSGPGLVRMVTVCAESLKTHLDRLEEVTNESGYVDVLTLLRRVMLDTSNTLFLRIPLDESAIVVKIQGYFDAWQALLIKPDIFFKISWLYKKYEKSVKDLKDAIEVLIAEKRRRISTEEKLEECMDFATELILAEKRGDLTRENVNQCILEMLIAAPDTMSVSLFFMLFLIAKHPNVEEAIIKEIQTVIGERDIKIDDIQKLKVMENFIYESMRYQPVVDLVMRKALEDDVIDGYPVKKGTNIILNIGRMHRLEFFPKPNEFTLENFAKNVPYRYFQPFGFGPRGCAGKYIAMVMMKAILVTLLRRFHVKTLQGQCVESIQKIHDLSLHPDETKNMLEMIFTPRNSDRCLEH

ovulation = settings: oral dosage of 10 mg/day in combination with 50 μg/day ethinylestradiol; cited from earlier work
[1] = system: human fibroblast cell line; assay: cytotoxicity against human fibroblast cell line

Row | SMILES | IC50 (human aromatase; in vitro, human placental microsomes, testosterone substrate, read-out: aromatase inhibition IC50) | inhibition of ovulation (ovulation) | IC50 (human aromatase) | cytotoxicity [1]
1 | CC(=O)O[C@]1(C(C)=O)CC[C@H]2[C@@H]3CCC4=CC(=O)CC[C@@H]4[C@H]3CC[C@@]21C [Compound 1, 17α-acetoxy-19-nor-progesterone] | 740 ± 24.1 nM | inhibit ovulation |  | 
2 | CC(=O)O[C@]1(C(C)=O)CC[C@H]2[C@@H]3CCC4=CC(=O)CC[C@]4(O)[C@H]3[C@@H](O)C[C@@]21C [Compound 2, 17α-Acetoxy-10β,11β-dihydroxy-progesterone] |  |  | 827 ± 66 nM | non-cytotoxic
